From PMC3539793 (Neuroscience letters, 2012)
Non-standard residues stand in square brackets, D forms with d. Residues, ends and D or L forms follow the SMILES beside them. *: point of attachment. X1 = OC[C@H]1O[C@@H](O[C@H]2[C@H](O)[C@@H](O)[C@H](*)O[C@@H]2CO)[C@H](O)[C@@H](O)[C@H]1O

Experiments:
allodynia = conditions: rhesus monkeys; i.m.; cited from earlier work
thermal nociception = conditions: rhesus monkeys; i.m.; cited from earlier work
δ-opioid receptor = conditions: cited from earlier work
[1] = format: in vivo, rat
μ-opioid receptor = conditions: cited from earlier work
[2] = rhesus monkeys; i.m. injection; cited from earlier work
[3] = tested on: apomorphine-induced overshoot in movement; conditions: reserpine-treated akinesia rats; cited from earlier work

CC(C)C[C@H](NC(=O)[C@H](Cc1ccccc1)NC(=O)CNC(=O)[C@H](NC(=O)[C@@H](N)Cc1ccc(O)cc1)[C@H](C)O)C(=O)N[C@@H](CO[C@@H]1O[C@H](CO)[C@@H](O[C@@H]2O[C@H](CO)[C@H](O)[C@H](O)[C@H]2O)[C@H](O)[C@H]1O)C(N)=O [MMP-2200, Tyr-D-Thr-Gly-Phe-Leu-Ser(β-O-Glc)-CONH2] (H-Y[dT]GFLS(X1)-NH2; N-terminus assumed)
anti-allodynic effects (allodynia): comparable to morphine | effect in tail flick model of thermal nociception (thermal nociception): not very effective | affinity for δ-opioid receptor (δ-opioid receptor): nanomolar | MMP-2200 concentration in DLS reached within 10 minutes ([1]; rat, systemic administration (i.p.), highlights): nM range | effect of MMP-2200 injection on endogenous leu-ENK level in DLS ([1]; rats, MMP-2200 10 mg/kg i.p., 80 min, repeated measures ANOVA p = 0.8, n = 5): unchanged | affinity for μ-opioid receptor (μ-opioid receptor): nanomolar | CNS distribution [2]: very limited | apomorphine-induced overshoot in movement [3]: reversed
